Experimental findings from patent publication US20230303540A1 (Merck Sharp & Dohme LLC, priority 2020, published 2023) are described below.

This assay deals with GST-tagged truncated human mutant G2019S LRRK2 (Homo sapiens, UniProt Q5S007, G2019S). The assay can be described thus: LRRK2 G2019S Km ATP LanthaScreen assay. Format: biochemical. The following applies: 134 μM ATP (Km ATP), LRRKtide substrate, mean IC50 values; read-out: LRRK2 pIC50 (converted). Here is the method: Unless otherwise noted, all reactions are magnetically stirred. Unless otherwise noted, when diethyl ether is used in the experiments described below, it is Fisher ACS certified material and is stabilized with BHT. Unless otherwise noted, “concentrated” and/or “solvent removed under reduced pressure” means evaporating the solvent from a solution or mixture using a rotary evaporator or vacuum pump. Unless otherwise noted, flash chromatography is carried out on a Teledyne Isco (Lincoln, NE), Analogix (Burlington, WI), or Biotage (Stockholm, SWE) automated chromatography system using a commercially available cartridge as the column. Columns may be purchased from Teledyne Isco, Analogix, Biotage, Varian (Palo Alto, CA), or Supelco (Bellefonte, PA) and are usually filled with silica gel as the stationary phase. Reverse phase prep-HPLC conditions, where used, can be found at the end of each experimental section. Aqueous solutions were concentrated on a Genevac (Ipswich, ENG) or by freeze-drying/lyophilization. Unless otherwise noted, all LRRK2 pIC50 data presented in tables refers to the LRRK2 G2019S Km ATP LanthaScreen™ assay (Life Technologies Corp., Carlsbad, CA) that is described in the Biological Assay section.
The IC50 values reported herein were measured as follows.
Biological Assay: LRRK2 Km ATP LanthaScreen™ Assay
The LRRK2 kinase activity reported herein as IC50 values was determined with LanthaScreen™ technology from Life Technologies Corporation (Carlsbad, CA) using GST-tagged truncated human mutant G2019S LRRK2 in the presence of the fluorescein-labeled peptide substrate LRRKtide, also from Life Technologies. The data presented for the Km ATP LanthaScreen™ Assay represents mean IC50 values based on several test results and may have reasonable deviations depending on the specific conditions and reagents used. Assays were performed in the presence of 134 μM ATP (Km ATP). Upon completion, the assay was stopped and phosphorylated substrate detected with a terbium (Tb)-labeled anti-pERM antibody (cat. no. PV4898). The compound dose response was prepared by diluting a 10 mM stock of compound to a maximum concentration of 9.99 μM in 100% dimethylsulfoxide followed by custom fold serial dilution in dimethylsulfoxide nine times. Twenty nanoliters of each dilution was spotted via a Labcyte Echo onto a 384-well black-sided plate (Corning 3575) followed by 15 μl of a 1.25 nM enzyme solution in 1× assay buffer (50 mM Tris pH 8.5, 10 mM MgCl2, 0.01% Brij-35, 1 mM EGTA, 2 mM dithiothreitol, 0.05 mM sodium orthovanadate). Following a 15-minute incubation at room temperature, the kinase reaction was started with the addition of 5 μl of 400 nM fluorescein-labeled LRRKtide peptide substrate and 134 μM ATP solution in 1× assay buffer. The reaction was allowed to progress at ambient temperature for 90 minutes. The reaction was then stopped by the addition of 20 μl of TR-FRET Dilution Buffer (Life Technologies, Carlsbad, CA) containing 2 nM Tb-labeled anti-phospho LRRKtide antibody and 10 mM EDTA (Life Technologies, Carlsbad, CA). After an incubation of 1 hour at room temperature, the plate was read on an EnVision multimode plate reader (Perkin Elmer, Waltham, MA) with an excitation wavelength of 337 nm (Laser) and a reading emission at both 520 and 495 nm. Compound IC50s were interpolated from nonlinear regression best fits of the log of the final compound concentration, plotted as a function of the 520/495-nm emission ratio using Activity base. Abase uses a 4 parameter (4P) logistic fit based on the Levenberg-Marquardt algorithm.
Background: TR-FRET usually uses a lanthanide donor and a delayed reading to cut background.
Regarding `FC1(F)CC(N2CCN(c3cc4nc(Nc5cnn(C6CC6)c5Cl)ncc4cc3Cl)CC2)C1` [Ex-4.71, 6-chloro-N-(5-chloro-1-cyclopropyl-1H-pyrazol-4-yl)-7-(4-(3,3-difluorocyclobutyl)piperazin-1-yl)quinazolin-2-amine], the IC50 is 11.1 nM.
For `C[C@@H]1CN(C2COC2)CC[C@@H]1n1ncc(Nc2ncc3ccc(N4C(=O)OC[C@@H]4C)cc3n2)c1Cl` [Ex-8.11, (4.5)-3-[2-({5-chloro-1-[(3R,4S)-3-methyl-1-(oxetan-3-yl)piperidin-4-yl]-1H-pyrazol-4-yl}amino)quinazolin-7-yl]-4-methyl-1,3-oxazolidin-2-one], the IC50 is 1.59 nM.
With `CC1(N2CCN(c3cc4nc(Nc5cnn(CC(F)(F)F)c5)ncc4cc3Cl)CC2)COC1` [Ex-4.19, 6-chloro-7-[4-(3-methyloxetan-3-yl)piperazin-1-yl]-N-[1-(2,2,2-trifluoroethyl)-1H-pyrazol-4-yl]quinazolin-2-amine], the IC50 is 3.03 nM.
On to `CC1(O)CCN(c2cc3nc(Nc4cnn(C5CC5)c4Cl)ncc3cc2C#N)CC1` [Ex-3.54, 2-[(5-chloro-1-cyclopropyl-1H-pyrazol-4-yl)amino]-7-(4-hydroxy-4-methylpiperidin-1-yl)quinazoline-6-carbonitrile], for which the IC50 was 8.43 nM.
With `Cc1c(Nc2ncc3cc(Cl)c(N4CCN(C5COCC5O)CC4)cc3n2)cnn1C1CC1(F)F` (single isomer, unassigned) [Ex-6.39, (3S,4S) or (3R,4R) 4-[4-(6-chloro-2-{[1-(2,2-(R) or (S)difluorocyclopropyl)-5-methyl-1H-pyrazol-4-yl]amino}quinazolin-7-yl)piperazin-1-yl]oxolan-3-ol] the figure was 0.65 nM; with `Cc1c(Nc2ncc3cc(Cl)c(N4CCC(C)(O)CC4)cc3n2)cnn1C1CC1(F)F` (single isomer, unassigned) [Ex-6.9, 1-(6-chloro-2-{[1-(2,2-(R) or (S)difluorocyclopropyl)-5-methyl-1H-pyrazol-4-yl]amino}quinazolin-7-yl)-4-methylpiperidin-4-ol], 1.79 nM; with `CC1(O)CCN(c2cc3nc(Nc4cnn(C5CC5)c4Cl)ncc3cc2Cl)CC1` [Ex-1.34, 1-{6-chloro-2-[(5-chloro-1-cyclopropyl-1H-pyrazol-4-yl)amino]quinazolin-7-yl}-4-methylpiperidin-4-ol], 1.39 nM.
With `Cn1ncc(Nc2ncc3ccc(N4C(=O)C5CCC4C5)cc3n2)c1C(F)(F)F` (single isomer, unassigned) [Ex-4.5, 2-(2-{[1-methyl-5-(trifluoromethyl)-1H-pyrazol-4-yl]amino}quinazolin-7-yl)-2-azabicyclo[2.2.1]heptan-3-one] the figure was 7.26 nM; with `CC1CCC12CN(c1cc3nc(Nc4cnn(C5(C)CC5)c4Cl)ncc3cc1Cl)C2` (single isomer, unassigned) [Ex-4.26, (R) or (S) 6-chloro-N-[5-chloro-1-(1-methylcyclopropyl)-1H-pyrazol-4-yl]-7-(5-methyl-2-azaspiro[3.3]heptan-2-yl)quinazolin-2-amine], 9.09 nM; with `CCC1(N2CCN(c3cc4nc(Nc5cnn(C6(C)CC6)c5Cl)ncc4cc3Cl)CC2)COC1` [Ex-4.29, 6-chloro-N-[5-chloro-1-(1-methylcyclopropyl)-1H-pyrazol-4-yl]-7-[4-(3-ethyloxetan-3-yl)piperazin-1-yl]quinazolin-2-amine], 5.28 nM.
As for `O=C1C2CCC(C2)N1c1ccc2cnc(Nc3ccn(CC(F)(F)F)n3)nc2c1` (centres unmarked) [Ex-4.8, 2-(2-{[1-(2,2,2-trifluoroethyl)-1H-pyrazol-3-yl]amino}quinazolin-7-yl)-2-azabicyclo[2.2.1]heptan-3-one], the figure is 8.95 nM.
Consider `CC1CCN1c1cc2nc(Nc3cnn(C4CN(CC(C)(C)O)C4)c3)ncc2cc1Cl` (centres unmarked) [Ex-4.10, 1-[3-(4-{[6-chloro-7-(2-methylazetidin-1-yl)quinazolin-2-yl]amino}-1H-pyrazol-1-yl)azetidin-1-yl]-2-methylpropan-2-ol], for which the IC50 is 34.3 nM.
With `CC1(N2CCN(c3cc4cc(Nc5cnn(C6CC6(F)F)c5Cl)ncc4cc3Cl)CC2)COCC1O` (single isomer, unassigned) [Ex-6.52, (3S,4S) or (3R,4R) 4-(4-(7-chloro-3-((5-chloro-1-(2,2-difluorocyclopropyl)-1H-pyrazol-4-yl)amino)isoquinolin-6-yl)piperazin-1-yl)-4-methyltetrahydrofuran-3-ol] the figure was 3.12 nM; with `CC1CN(c2cc3nc(Nc4cnn(C5CC5)c4Cl)ncc3cc2Cl)CCN1C1COCC1O` (single isomer, unassigned) [Ex-12.7, (3S,4S) or (3R, 4R)-4-((R) or (S)-4-(4-(6-chloro-2-((5-chloro-1-cyclopropyl-1H-pyrazol-4-yl)amino)quinazolin-7-yl)-2-methylpiperazin-1-yl)tetrahydrofuran-3-ol], 4.36 nM.
With `OCC1CCN(c2cc3nc(Nc4cnn(CC(F)F)c4Cl)ncc3cc2Cl)C1` (centres unmarked) [Ex-1.15, [1-(6-chloro-2-{[5-chloro-1-(2,2-difluoroethyl)-1H-pyrazol-4-yl]amino}quinazolin-7-yl)pyrrolidin-3-yl]methanol] the figure was 5.49 nM; with `Cn1ncc(Nc2ncc3ccc(N4C(=O)C5CCC4C5)cc3n2)c1C(F)F` (single isomer, unassigned) [Ex-4.7, 2-(2-{[5-(difluoromethyl)-1-methyl-1H-pyrazol-4-yl]amino}quinazolin-7-yl)-2-azabicyclo[2.2.1]heptan-3-one], 3.19 nM; with `Cn1ncc(Nc2ncc3ccc(N4C(=O)C5CCC4C5)cc3n2)c1C(F)F` (single isomer, unassigned) [Ex-4.6, 2-(2-{[5-(difluoromethyl)-1-methyl-1H-pyrazol-4-yl]amino}quinazolin-7-yl)-2-azabicyclo[2.2.1]heptan-3-one], 34.9 nM.
As for `O=C1COCC12CCN(c1cc3nc(Nc4cnn(C5CC5)c4Cl)ncc3cc1Cl)CC2` [Ex-3.36, 8-{6-chloro-2-[(5-chloro-1-cyclopropyl-1H-pyrazol-4-yl)amino]quinazolin-7-yl}-2-oxa-8-azaspiro[4.5]decan-4-one], the figure is 3.02 nM.
In the case of `CC(C)n1ncc(Nc2ncc3cc(Cl)c(N4CCN(C5(C)COCC5O)CC4)cc3n2)c1C(F)F` (single isomer, unassigned) [Ex-6.50, (3S,4S) or (3R,4R) 4-(4-(6-chloro-2-((5-(difluoromethyl)-1-isopropyl-1H-pyrazol-4-yl)amino)quinazolin-7-yl)piperazin-1-yl)-4-methyltetrahydrofuran-3-ol], the IC50 was 0.08 nM.
As for `Cc1c(Nc2ncc3cc(Cl)c(N4CCC(C)(O)C(C)C4)cc3n2)cnn1C1CC1` (single isomer, unassigned) [Ex-3.49, (3R,4R) or (3S,4S) or (3R,4S) or (3S,4R) 1-{6-chloro-2-[(1-cyclopropyl-5-methyl-1H-pyrazol-4-yl)amino]quinazolin-7-yl}-3,4-dimethylpiperidin-4-ol], the figure is 1.33 nM; as for `CC(C)(O)Cn1cc(Nc2ncc3cc(Cl)c(N4CCC(O)CC4)cc3n2)cn1` [Ex-3.10, 1-(6-chloro-2-{[1-(2-hydroxy-2-methylpropyl)-1H-pyrazol-4-yl]amino}quinazolin-7-yl)piperidin-4-ol], 0.407 nM; as for `Cc1cc2cnc(Nc3cnn(C45CC(C4)C5)c3Cl)nc2cc1N1CCN(C2COCC2O)CC1` (single isomer, unassigned) [Ex-5.12, (3S,4S) or (3R,4R) 4-(4-(2-((1-(bicyclo[1.1.1]pentan-1-yl)-5-chloro-1H-pyrazol-4-yl)amino)-6-methylquinazolin-7-yl)piperazin-1-yl)tetrahydrofuran-3-ol], 5.17 nM.
With `CC1(N2CCN(c3cc4nc(Nc5ccn(CC(F)(F)F)n5)ncc4cc3Cl)CC2)COC1` [Ex-4.63, 6-chloro-7-[4-(3-methyloxetan-3-yl)piperazin-1-yl]-N-[1-(2,2,2-trifluoroethyl)-1H-pyrazol-3-yl]quinazolin-2-amine] the figure was 28.3 nM.
